# In patent US6472421B1, “Methods for treating, preventing, and reducing the risk of the onset of alzheimer's disease using an HMG CoA reductase inhibitor” (Nymox Corporation, priority 1998, dated 2002):
# How the values were obtained:
# [1] = tested on: Alzheimer's disease (AD) in patients over the age of 60; experiment: Health care database study at three hospitals: frequency of AD by medication (ICD-9-CM codes); format: in vivo, human; details: for Prevalence Of AD/1000 Hines / Prevalence Of AD/1000 Loyola / Prevalence Of AD/1000 Phoenix / Prevalence Of AD/1000 Combined: patients 60 years or over; for Prevalence Of AD/1000 Hines: Hines Veterans Authority Medical Center; for Prevalence Of AD/1000 Loyola: Loyola Medical Center; for Prevalence Of AD/1000 Phoenix: Phoenix Veterans Authority Medical Center; for Prevalence Of AD/1000 Combined: data from the three sites combined; for effect on prevalence / risk of AD (in words): patients over the age of 60, compared with total patient population
# Source text: To perform the study, relational databases at three different hospitals (Loyola Medical Center (“Loyola”), Hines Veterans Authority Medical Center (“Hines”), and Phoenix Veterans Authority Medical Center (“Phoenix”)) were searched to obtain aggregate data about the frequency of AD. Each database included clinical information that facilitated identification of potential relationships between specific items. […] Patient privacy was protected by using only aggregate patient data.
# Each database was sorted to exclude any subjects under the age of 60 and any entries that contained patients' names but no medical information pertinent to the study. This yielded a total patient sample size for the three databases of 63,296 patients.
# The frequency of AD for each medication was then determined using ICD-9-CM codes.
# Alzheimer's disease was identified under the ICD-9-CM code of 331.0, but because other codes also apply to AD, the codes 331.2, 290.0, 290.10-13, 290.20 and 290.3 were also included as AD cases based on interviews with the physicians at each center who diagnosed or oversaw the diagnosis of patients with AD and on their coding practices for AD. The diagnosis of AD was made according to the criteria of the National Institute of Neurological and Communicative Disorders and Stroke (NINCDS) and the Alzheimer's Disease and Related Disorders Association (ADRDA) Work Group (McKhann et al., “Clinical Diagnosis of Alzheimer's Disease: Report of the NINCDS-ADRDA Work Group under the Auspices of Department of Health and Human Services Task Force on Alzheimer's Disease,” Neurology, 34:939-944 (1984).) Each AD patient had received either a CT scan or MRI to exclude other diagnoses, and had been screened for other metabolic, toxic, or affective disorders that may produce dementia.
# Statistics were determined by comparisons of proportions using chi square analyses. All statistics listed P values and 95% confidence intervals.
# Alzheimer's disease (AD) = details: comparison figures, no source given; cited from earlier work
Compound,Prevalence Of AD/1000 Hines [1],Prevalence Of AD/1000 Loyola [1],Prevalence Of AD/1000 Phoenix [1],Prevalence Of AD/1000 Combined [1],effect on prevalence / risk of AD (in words) [1],"degree of reduction (of AD risk), other putative AD therapeutics (Alzheimer's disease (AD))"
"CC(C)NCC(O)COc1ccc(CC(N)=O)cc1 (stereo not shown) [Atenolol, atenolol]",7.1 /1000,19.2 /1000,19.0 /1000,14.8 /1000,higher than that of the total patient cohort,–
"C[C@H](CS)C(=O)N1CCC[C@H]1C(=O)O [Captopril, captopril]",8.4 /1000,13.6 /1000,10.6 /1000,10.6 /1000,did not show any significant reduction,–
"NS(=O)(=O)c1cc(C(=O)O)c(NCc2ccco2)cc1Cl [Furosemide, furosemide]",9.0 /1000,16.7 /1000,14.1 /1000,8.9 /1000,did not show any significant reduction,–
"COCCc1ccc(OCC(O)CNC(C)C)cc1 (stereo not shown) [Metoprolol, metoprolol]",4.4 /1000,15.3 /1000,12.4 /1000,12.1 /1000,higher than that of the total patient cohort,–
"CC[C@H](C)C(=O)O[C@H]1C[C@H](O)C=C2C=C[C@H](C)[C@H](CC[C@@H](O)C[C@@H](O)CC(=O)O)[C@H]21 [Pravastatin, 1-naphthalene-hepatnoic acid, 1,2,6,7,8,8a-hexahydro-β,δ,6-trihydroxy-2-methyl-8-(2-methyl-1-oxobutoxy)]",1.1 /1000,0 /1000,8.3 /1000,4.3 /1000,–,–
"CC(C)NCC(O)COc1cccc2ccccc12 (stereo not shown) [Propanolol, propanolol]",3.9 /1000,42.4 /1000,20.7 /1000,17.5 /1000,higher than that of the total patient cohort,–
"CCC(C)(C)C(=O)O[C@H]1C[C@@H](C)C=C2C=C[C@H](C)[C@H](CC[C@@H]3C[C@@H](O)CC(=O)O3)[C@H]21 [Simvastatin, simvastatin]",–,8.1 /1000,11.2 /1000,11.2 /1000,–,–
Cc1c(C)c2c(c(C)c1O)CC[C@@](C)(CCC[C@H](C)CCC[C@H](C)CCCC(C)C)O2 [alpha-tocopherol],–,–,–,–,–,52%
estrogen,–,–,–,–,–,25-31%
